Patent publication US20230278972A1, “SUBSTITUTED HALOALKYL SULFONANILIDE HERBICIDES” (FMC Corporation, priority 2020, published 2023)

Assays:
[1] = tested on: galium (catchweed bedstraw, Galium aparine); test: Test A postemergence, galium; type: in vivo; settings: Galium, post-emergence, 240 h, read-out: Plant response rating, Galium
Outline: (§1)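 After sowing into a sand-amended loam, pots for the preemergence test were treated by spraying directly onto soil. In parallel, seedlings at the one- to two-leaf stage and 2 to 10 cm tall were treated postemergence with the identical surfactant-containing formulation.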

[2] = tested on: Ryegrass, Italian (Italian ryegrass, Lolium multiflorum); test: Test A postemergence, Ryegrass, Italian; type: in vivo; settings: Lolium multiflorum, post-emergence, 240 h, read-out: Plant response rating, Ryegrass, Italian
Outline: (§2)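 Compounds in non-phytotoxic solvent with surfactant. Soil: loam/sand. Preemergence via directed soil spray after seeding; postemergence on seedlings 2–10 cm, one- to two-leaf.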

kochia (Bassia scoparia) [3] = test: Test A preemergence, kochia; type: in vivo; settings: Bassia scoparia, pre-emergence, 240 h; for pest or weed control at 500 g/ha: read-out: Kochia plant response rating; for pest or weed control at 125 g/ha: read-out: Plant response rating, Kochia
Outline: as §2

[4] = tested on: ragweed (common ragweed, Ambrosia artemisiifolia); test: Test A preemergence, ragweed; type: in vivo; settings: Ambrosia artemisiifolia, pre-emergence, 240 h; for pest or weed control at 125 g/ha: read-out: Plant response rating, Ragweed; for pest or weed control at 500 g/ha: read-out: Ragweed plant response rating
Outline: as §2

[5] = tested on: barnyardgrass (Echinochloa crus-galli); test: Test A postemergence, barnyardgrass; type: in vivo; settings: Echinochloa crus-galli, post-emergence, 240 h, read-out: Plant response rating, Barnyardgrass
Outline: as §1

[6] = tested on: Foxtail, Giant (giant foxtail, Setaria faberi); test: Test A preemergence, Foxtail, Giant; type: in vivo; settings: Setaria faberi, pre-emergence, 240 h; for pest or weed control at 500 g/ha: read-out: Foxtail, Giant plant response rating; for pest or weed control at 125 g/ha: read-out: Plant response rating, Foxtail, Giant
Outline: as §2

[7] = tested on: pigweed (Amaranthus retroflexus); test: Test A postemergence, pigweed; type: in vivo; settings: Amaranthus retroflexus, post-emergence, 240 h, read-out: Plant response rating, Pigweed
Outline: as §2

kochia (Bassia scoparia) [8] = test: Test A postemergence, kochia; type: in vivo; settings: Bassia scoparia, post-emergence, 240 h, read-out: Plant response rating, Kochia
Outline: as §2

[9] = tested on: ragweed (common ragweed, Ambrosia artemisiifolia); test: Test A postemergence, ragweed; type: in vivo; settings: Ambrosia artemisiifolia, post-emergence, 240 h, read-out: Plant response rating, Ragweed
Outline: as §2

corn (Zea mays) = test: Test A postemergence, corn; type: in vivo; settings: Zea mays, post-emergence, 240 h, read-out: Plant response rating, Corn
Outline: as §2

[10] = tested on: Foxtail, Giant (giant foxtail, Setaria faberi); test: Test A postemergence, Foxtail, Giant; type: in vivo; settings: Setaria faberi, post-emergence, 240 h, read-out: Plant response rating, Foxtail, Giant
Outline: as §2

[11] = tested on: barnyardgrass (Echinochloa crus-galli); test: Test B flooded paddy test, barnyardgrass; settings: 336 h, read-out: Plant response rating, Barnyardgrass
[12] = tested on: ducksalad (Heteranthera limosa); test: Test B flooded paddy test, ducksalad; settings: 336 h, read-out: Plant response rating, Ducksalad
[13] = tested on: blackgrass (Alopecurus myosuroides); test: Test A postemergence, blackgrass; type: in vivo; settings: Alopecurus myosuroides, post-emergence, 240 h, read-out: Plant response rating, Blackgrass
Outline: as §2

[14] = tested on: Ryegrass, Italian (Italian ryegrass, Lolium multiflorum); test: Test A preemergence, Ryegrass, Italian; type: in vivo; settings: Lolium multiflorum, pre-emergence, 240 h; for pest or weed control at 125 g/ha: read-out: Plant response rating, Ryegrass, Italian; for pest or weed control at 500 g/ha: read-out: Ryegrass, Italian plant response rating
Outline: as §2

[15] = tested on: barnyardgrass (Echinochloa crus-galli); test: Test A preemergence, barnyardgrass; type: in vivo; settings: Echinochloa crus-galli, pre-emergence, 240 h; for pest or weed control at 500 g/ha: read-out: Barnyardgrass plant response rating; for pest or weed control at 125 g/ha: read-out: Plant response rating, Barnyardgrass
Outline: as §2

[16] = tested on: wheat (Triticum aestivum); test: Test A postemergence, wheat; type: in vivo; settings: Triticum aestivum, post-emergence, 240 h, read-out: Plant response rating, Wheat
Outline: as §1

rice (Oryza sativa) = test: Test B flooded paddy test, rice; settings: 336 h, read-out: Plant response rating, Rice

| Compound | pest or weed control at 125 g/ha [1] [%] | pest or weed control at 500 g/ha [1] [%] | pest or weed control at 125 g/ha [2] [%] | pest or weed control at 500 g/ha [2] [%] | pest or weed control at 500 g/ha (kochia (Bassia scoparia) [3]) [%] | pest or weed control at 125 g/ha (kochia (Bassia scoparia) [3]) [%] | pest or weed control at 125 g/ha [4] [%] | pest or weed control at 500 g/ha [4] [%] | pest or weed control at 125 g/ha [5] [%] | pest or weed control at 500 g/ha [5] [%] | pest or weed control at 500 g/ha [6] [%] | pest or weed control at 125 g/ha [6] [%] | pest or weed control at 125 g/ha [7] [%] | pest or weed control at 500 g/ha [7] [%] | pest or weed control at 125 g/ha (kochia (Bassia scoparia) [8]) [%] | pest or weed control at 500 g/ha (kochia (Bassia scoparia) [8]) [%] | pest or weed control at 125 g/ha [9] [%] | pest or weed control at 500 g/ha [9] [%] | plant injury at 125 g/ha (corn (Zea mays)) [%] | plant injury at 500 g/ha (corn (Zea mays)) [%] | other results |
| --- | --- | --- | --- | --- | --- | --- | --- | --- | --- | --- | --- | --- | --- | --- | --- | --- | --- | --- | --- | --- | --- |
| Cc1cc(C)c(N(S(=O)(=O)C(F)(F)F)S(=O)(=O)C(F)(F)F)cc1N1CCC2(CCCCC2)C1=O [Compound 267, N-[2,4-Dimethyl-5-(1-oxo-2-azaspiro[4.5]dec-2-yl)phenyl]-1,1,1-trifluoro-N-[(trifluoromethyl)sulfonyl]methanesulfonamide] | 80 | 90 | 0 | 30 | 100 | 80 | 100 | 100 | 20 | 20 | 100 | 100 | 50 | 80 | 40 | 60 | 10 | 40 | 0 | 0 | pest or weed control at 125 g/ha [10]: 0%; pest or weed control at 500 g/ha [10]: 0%; pest or weed control at 250 g/ha [11]: 0%; pest or weed control at 250 g/ha [12]: 35%; pest or weed control at 125 g/ha [13]: 0%; pest or weed control at 500 g/ha [13]: 20%; pest or weed control at 125 g/ha [14]: 90%; pest or weed control at 500 g/ha [14]: 100%; pest or weed control at 500 g/ha [15]: 100%; pest or weed control at 125 g/ha [15]: 100%; plant injury at 125 g/ha [16]: 40%; plant injury at 500 g/ha [16]: 60%; plant injury at 250 g/ha (rice (Oryza sativa)): 0% |
| Cc1cc(C)c(N(COC(=O)C(C)(C)C)S(=O)(=O)C(F)(F)F)cc1N1CCC2(CCCCC2)C1=O [Compound 268, [[2,4-Dimethyl-5-(1-oxo-2-azaspiro[4.5]dec-2-yl)phenyl][(trifluoromethyl)sulfonyl]amino]methyl 2,2-dimethylpropanoate] | 90 | 90 | 40 | 60 | 70 | 70 | 40 | 90 | 50 | 80 | 70 | 50 | 60 | 80 | 30 | 40 | 70 | 90 | 50 | 70 | pest or weed control at 125 g/ha [10]: 0%; pest or weed control at 500 g/ha [10]: 30%; pest or weed control at 250 g/ha [11]: 40%; pest or weed control at 250 g/ha [12]: 70%; pest or weed control at 125 g/ha [13]: 20%; pest or weed control at 500 g/ha [13]: 40%; pest or weed control at 125 g/ha [14]: 0%; pest or weed control at 500 g/ha [14]: 60%; pest or weed control at 500 g/ha [15]: 50%; pest or weed control at 125 g/ha [15]: 40%; plant injury at 125 g/ha [16]: 50%; plant injury at 500 g/ha [16]: 70%; plant injury at 250 g/ha (rice (Oryza sativa)): 0% |
| Cc1cc(C)c(N2CCC3(CCCCC3)C2=O)cc1NS(=O)(=O)C(F)(F)F [Compound 278, N-[2,4-Dimethyl-5-(1-oxo-2-azaspiro[4.5]dec-2-yl)phenyl]-1,1,1-trifluoromethanesulfonamide] | 90 | 90 | 30 | 80 | 100 | 90 | 90 | 100 | 20 | 80 | 100 | 60 | 60 | 90 | 30 | 70 | 40 | 60 | 0 | 30 | pest or weed control at 125 g/ha [10]: 0%; pest or weed control at 500 g/ha [10]: 20%; pest or weed control at 250 g/ha [11]: 0%; pest or weed control at 250 g/ha [12]: 85%; pest or weed control at 125 g/ha [13]: 0%; pest or weed control at 500 g/ha [13]: 50%; pest or weed control at 125 g/ha [14]: 100%; pest or weed control at 500 g/ha [14]: 100%; pest or weed control at 500 g/ha [15]: 100%; pest or weed control at 125 g/ha [15]: 60%; plant injury at 125 g/ha [16]: 60%; plant injury at 500 g/ha [16]: 70%; plant injury at 250 g/ha (rice (Oryza sativa)): 15% |
